Measurements from patent US20030203908A1, “Dihydrofolate reductase inhibitors” (priority 2000, published 2003).
Values after ≈ are worked out from the molar mass of the structure shown.

What was measured:
[1] = system: P. falciparum FCR3 (resistant strain containing the A16V.S108T DHFR mutant); assay: In vitro inhibition of P. falciparum FCR3; format: cell-based, Plasmodium falciparum; conditions: Plasmodium falciparum; in vitro, FCR3 strain; read-out: Pf-FCR3 ED50
[2] = target: T1, DHFR-TS from Trypanosoma cruzi (Trypanosoma cruzi, UniProt Q27793); assay: Inhibition of T. cruzi DHFR-TS (I50-derived Ki);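 as to all read-outs here: enzymes were recombinant T. cruzi DHFR-TS and human DHFR, both expressed in E. coli and purified on a methotrexate affinity column, with dihydrofolate and NADPH as substrates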; format: biochemical; conditions: for Selectivity: human Ki / T. cruzi Ki
T1 construct: pET 11c with the insertion of the complete ORF of the gene tc-dhfrts; made in house; host or cells: E. coli BL21 (DE3)
T1 sequence (Q27793 whole entry): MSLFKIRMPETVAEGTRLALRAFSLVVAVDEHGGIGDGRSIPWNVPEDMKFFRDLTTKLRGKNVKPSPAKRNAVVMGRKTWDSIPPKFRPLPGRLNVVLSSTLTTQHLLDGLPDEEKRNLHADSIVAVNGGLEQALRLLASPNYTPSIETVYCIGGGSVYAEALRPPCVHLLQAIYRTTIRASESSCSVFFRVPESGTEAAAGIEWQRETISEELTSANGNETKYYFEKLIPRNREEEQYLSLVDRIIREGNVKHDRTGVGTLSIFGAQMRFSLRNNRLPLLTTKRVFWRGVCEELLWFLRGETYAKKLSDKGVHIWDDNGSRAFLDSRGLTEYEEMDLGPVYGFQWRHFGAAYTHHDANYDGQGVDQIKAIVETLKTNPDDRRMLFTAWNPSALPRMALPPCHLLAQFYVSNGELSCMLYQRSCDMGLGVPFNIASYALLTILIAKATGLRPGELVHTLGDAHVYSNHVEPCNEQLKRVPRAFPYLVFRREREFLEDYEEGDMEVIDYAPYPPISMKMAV
Experimental: DHFR activity was measured spectrophotometrically by monitoring the decrease in absorbance at 340 mm.
(§1) Inhibition of dihydrofolate reductases by 1,2-dihydro-1,3,5 triazines was analysed with T. cruzi and human DHFR.
(§2) DHFR assays contained 30 mM dihydrofolate, 0.1 mM NADPH, 50 mM TES buffer pH 7, 75 mM 2-mercaptoethanol and specified amounts of inhibitors. The reaction was initiated by addition of 2.8 or 2.3 units of T. cruzi and human, respectively, and monitored at 340 nm.
Selective inhibition of dihydrofolate reductase by 1,2-dihydro-1,3,5-triazines was analysed with T. cruzi and human DHFR. DHFR assays contained 30 μM dihydrofolate, 0.1 mM NADPH, 50 mM TES buffer pH 7, 75 mM β-mercaptoethanol and specified amounts of inhibitors. The reaction was initiated by addition of 2.8 or 2.3 units of T. cruzi and human enzyme, respectively, and monitored at 340 nm.
KiI 50=[I]0.5/((1+[S])/Km)

[3] = system: wild-type (TM4/8.2) strain of P. falciparum; assay: microbe, parasite or virus in culture; format: cell-based, Plasmodium falciparum; conditions: Plasmodium falciparum; wild-type strain TM4/8.2
Experimental: Mol. Biochem. Parasitol. […] Science, 1976, 193, 673-675]. In vitro antimalarial activity was determined by using [^3H]-hypoxanthine incorporation method [Desjardins, R. E.; Canfield, C. J.; Haynes, J. D.; Chulay, J. D. Quantitative assessment of antimalarial activity in vitro by a semiautomated microdilution technique. Antimicrob Agents Chemother. 1979, 16, 710-718]. The drugs were initially dissolved in DMSO and diluted with the culture media. Aliquots (25 μl) of drug solution of different concentrations was placed in 96-well plate together with 200 μl of 1.5% cell suspension of parasitized erythrocytes containing 1-2% parasitemia. Final concentration of DMSO was 0.1% where there was no effect on the parasite growth. The mixtures were incubated in a 3% CO2 incubator at 37° C. After 24 h of incubation, 25 μl (0.25 μCi) of [^3H]-hypoxanthine were added to each well. The mixtures were further incubated under the same condition for 18-24 h. DNA of parasites was harvested onto glass filter paper (Unifilter, Packard, USA). The filters were dried and liquid scintillation fluid was added for radioactivity measurement in a 6-probe liquid scintillation-counter (Packard, USA).

[4] = system: A16V.S108T mutant (mut) of DHFR from Plasmodium falciparum; assay: biochemical; conditions: resistance factor
Experimental: (§3) For determination of the Ki values of a number of synthesized analogues, the assay reactions were initiated with affinity-purified enzyme (^˜0.005-0.01 U ml^−1), and the initial velocities in the presence of varying concentrations of inhibitors were analysed by non-linear least square fit using Kaleidagraph™ software.

[5] = target: T2, A16V.S108T mutant (mut) of DHFR from Plasmodium falciparum (Plasmodium falciparum, UniProt A7UD81, A16V/S108T); assay: biochemical
T2 construct: The Dihydrofolate Reductase Domain of Plasmodium falciparum Thymidylate Synthase-Dihydrofolate Reductase; made in house
T2 sequence (A7UD81 1-231 A16V/S108T): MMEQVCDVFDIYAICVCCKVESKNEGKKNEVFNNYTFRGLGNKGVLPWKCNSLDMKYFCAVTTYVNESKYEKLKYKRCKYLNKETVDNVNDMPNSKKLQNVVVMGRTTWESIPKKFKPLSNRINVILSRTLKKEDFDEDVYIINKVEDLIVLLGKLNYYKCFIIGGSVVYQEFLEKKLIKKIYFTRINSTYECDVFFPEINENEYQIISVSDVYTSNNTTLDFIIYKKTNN
Experimental: as §3

[6] = target: T3, wild-type (wt) DHFR from Plasmodium falciparum (Plasmodium falciparum, UniProt P13922, N108S/R59C); assay: Inhibition of wild-type pfDHFR (spectrophotometric, Ki); format: biochemical; conditions: Ki(wt) nM;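 also: Affinity-purified enzyme, initial reaction rates measured across a range of inhibitor concentrations, Ki obtained by nonlinear least-squares fitting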
T3 construct: The Dihydrofolate Reductase Domain of Plasmodium falciparum Thymidylate Synthase-Dihydrofolate Reductase; made in house
T3 sequence (P13922 10-228 R59C/N108S): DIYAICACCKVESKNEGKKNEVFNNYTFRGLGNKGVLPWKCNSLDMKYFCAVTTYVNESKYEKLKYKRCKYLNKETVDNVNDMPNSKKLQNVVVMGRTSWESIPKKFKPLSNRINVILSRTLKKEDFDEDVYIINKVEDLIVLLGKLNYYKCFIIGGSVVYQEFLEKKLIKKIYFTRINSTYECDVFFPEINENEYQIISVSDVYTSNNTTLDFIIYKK
Experimental: as §3

[7] = system: P. falciparum 3D7 (wild-type strain); assay: In vitro inhibition of P. falciparum 3D7; format: cell-based, Plasmodium falciparum; conditions: Plasmodium falciparum, 3D7 strain, read-out: Pf-3D7 ED50
human DHFR [8] = target: T4, human DHFR (Homo sapiens, UniProt P00374); assay: Inhibition of human DHFR (I50-derived Ki); format: biochemical; conditions: Human Ki (I50)(nM);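 also: recombinant human DHFR expressed in E. coli and purified by methotrexate affinity chromatography, enzyme activity followed spectrophotometrically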
T4 construct: made in house; host or cells: E. coli M15
T4 sequence (P00374 1-187): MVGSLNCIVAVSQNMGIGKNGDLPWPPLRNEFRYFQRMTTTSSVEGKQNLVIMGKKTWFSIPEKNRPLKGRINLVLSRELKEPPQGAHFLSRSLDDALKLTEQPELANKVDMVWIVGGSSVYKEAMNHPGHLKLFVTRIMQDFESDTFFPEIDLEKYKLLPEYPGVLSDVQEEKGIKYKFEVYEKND
Experimental: (§4) Folic acid and NADPH, were purchased from Sigma. Dihydrofolate was prepared from folic acid dithionate reduction. Methotrexate (MTX) was from Lederle Laboratories. MTX sepharose CL-6B was prepared according to the protocol described by Dann. et al. IPTG came from Boehringer Manheim. The expression system used for recombinant human DHFR production, which includes the plasmid PB-E1/RB SII, SphI-HDHFR expressed in E. coli M15, was supplied by Santi, D. V (Department of Biochemistry and Biophysics and Department of Pharmaceutical Chemistry, University of California). Recombinant T. Cruzi DHFR-TS was produced using the system pET 11c with the insertion of the complete ORF of the gene tc-dhfrts. The resulting plasmid was called pET DT.
(§5) Human and T.cruzi DHFR were produced using inducible expression systems. For human DHFR, fresh overnight cultures of E. coli M15, transformed with the plasmid, pB-E1/RB SII, SphI-HDHFR, were grown in LB and 0.1 mg/ml ampicillin medium at 28° C. For T.cruzi DHFR-TS, cultures of E. coli, BL21 (DE3) transformed with the plasmid pETDT system were grown at 37° C. The same purification protocol was used for both systems. When OD600 was at 0.8, cells pellets were collected by centrifugation, suspended in 50 ml of LB medium, containing 0.1 mg/ml of ampicillin. 10 ml of this preinocule was added to 2 litres of LB medium. Cultures were shaken at 28° C. or 37° C. (for human and T. cruzi DHFR respectively) and induction with IPTG ImM was performed when OD600 reached 0.8. After IPTG induction, cells were grown overnight in a shaker at 28° C. or 5 hours at 28° C. or 37° C. (for human and T. cruzi DHFR respectively) and then harvested by centrifugation.
(§6) Cell pellets were suspended in sonication buffer (2× TES DHFR:TES 100 mM, 2-mercaptoethanol 150 mM, EDTA 2 mM pH=7) containing protease inhibitors.
(§7) Crude extract was circulated through the MTX-Sepharose column at 4° C. at a flow rate of 0.2 ml/min until the protein was bound to the resin. The column was washed with an excess of buffer B (KH2PO410 mM pH 7, KC1 1M). Protein was eluted at 0.2 min/ml with an elution buffer (100 mM TES, 10 mM DTT, 2 mM EDTA, DHF 8.5 mM), the elution profile was collected in 1 ml fractions using a Pharmacia LKB Frac 200 collector. Finally, the protein was desalted using molecular size exclusion chromatography in a Pharmacia G-25 column. Fractions containing DHFR activity were pooled and concentrated by ultrafiltration using centripreps Amicon.
(§8) The purity of the protein preparation was assessed by detection of a single band of the correct molecular weight stained with coomasie blue following a 12% SDS-PAGE. Protein concentration was determined by the method of Bradford using a BSA as a standard. DHFR activity was measured spectrophotometrically by monitoring the decrease in absorbance at 340 mm. […] One unit of enzyme, is defined as the amount of enzyme which produces 1 nmol of product per min using ε of 12300M^−1 at 340 nm.
as §1, §2
(§9) Selective inhibition of dihydrofolate reductase by 1,2-dihydro-1,3,5-triazines was analysed with T. cruzi and human DHFR. DHFR assays contained 30 μM dihydrofolate, 0.1 mM NADPH, 50 mM TES buffer pH 7, 75 mM β-mercaptoethanol and specified amounts of inhibitors. The reaction was initiated by addition of 2.8 or 2.3 units of T. cruzi and human enzyme, respectively, and monitored at 340 nm. […] KiI 50=[I]0.5/((1+[S])/Km)

human DHFR [9] = assay: Inhibition of human DHFR (I50-derived Ki); format: biochemical;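 also: recombinant human DHFR expressed in E. coli and purified by methotrexate affinity chromatography, enzyme activity followed spectrophotometrically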
Experimental: as §4, §5, §6, §7, §8, §1, §2, §9

Compound	IC50 [1]	Ki [2]	Selectivity [2]	IC50 [3]	Ki(mut)/Ki(wt) [4]	Ki [5]	Ki [6]	IC50 [7]	Ki (human DHFR [8])	Ki (human)/Ki (P. falc. mut) (human DHFR [9])	Ki (human)/Ki (P. falc. wt) (human DHFR [9])	Ki (human)/Ki (T. cruzi) (human DHFR [9])	Ki (human DHFR [8]; human DHFR)
Cl.NC1=NCN(c2ccc(Cl)cc2)C(N)=N1 [(Ia) R2=H, 1-(4′-Chlorophenyl)-4,6-diamino-1,2-dihydro-1,3,5-triazine hydrochloride]	0.13 mg/L	0.016 µM	76	0.952 µM	26	0.649 ± 0.077 µM	24.4 ± 4.3 nM	0.04 mg/L	1210 nM	1.9	49.7	75.7	
CC(C)(C)c1ccc(Oc2cccc(C3N=C(N)N=C(N)N3c3cccc(Cl)c3)c2)cc1 (stereo not drawn) [(Ib) R2=3-(4-t-butylphenoxy)phenyl]	0.47 mg/L (≈ 1.05 µM)			5.04 µM	0.7	0.0056 ± 0.0009 µM	7.7 ± 0.5 nM	> 0.3 mg/L					
CC(C)c1ccc(C2N=C(N)N=C(N)N2c2ccc(Cl)cc2)cc1 (stereo not drawn) [(Ia) R2=p-isopropylphenyl, 1-p-chlorophenyl-2-p-isopropylphenyl-4,6-diamino-1,2-dihydro-1,3,5-triazine]		0.06 µM	167	0.973 µM	8.0	0.0152 ± 0.0016 µM	1.9 ± 0.6 nM			661	5289	167	10000 nM
NC1=NCN(c2cccc(Cc3ccccc3)c2)C(N)=N1 [R2=H, X=H, Y=Bn]		0.029 µM	2.3	0.403 µM	0.6	0.006 ± 0.0001 µM	9.4 ± 0.4 nM			11	7.0	2.27	66 nM
NC1=NC(c2cccc(OCc3ccccc3)c2)N(c2ccc(Cl)cc2)C(N)=N1 (stereo not drawn) [(Ia) R2=m-benzyloxyphenyl]	0.62 mg/L (≈ 1.53 µM)			0.832 µM	8.8	0.0062 µM	0.7 nM	0.18 mg/L (≈ 0.443 µM)					
CCOc1ccc(C2N=C(N)N=C(N)N2c2ccc(Cl)cc2)cc1 (stereo not drawn) [(Ia) R2=p-ethoxyphenyl, 1-p-chlorophenyl-2-p-ethoxyphenyl-4-6-diamino-1,2-dihydro-1,3,5-triazine]		0.07 µM	25	0.181 µM	24.3	0.036 ± 0.006 µM	1.5 ± 0.2 nM			48	1153	24.7	1730 nM
NC1=NC(c2ccc(F)cc2)N(c2ccc(Cl)cc2)C(N)=N1 (stereo not drawn) [(Ia) R2=p-fluorophenyl]		1.01 µM	10	0.359 µM	15.1	0.13 ± 0.017 µM	8.6 ± 1.4 nM			81	1227	10.4	10600 nM
COc1ccc(C2N=C(N)N=C(N)N2c2ccc(Cl)cc2)cc1 (stereo not drawn) [(Ia) R2=p-methoxyphenyl, 1-p-chlorophenyl-2-p-methoxyphenyl-4,6-diamino-1,2-dihydro-1,3,5-triazine]		0.026 µM	212	0.424 µM	11.3	0.129 ± 0.025 µM	11.4 ± 1.5 nM			42.9	485	212	5530 nM
NC1=NC(c2ccc(OCc3ccccc3)cc2)N(c2ccc(Cl)cc2)C(N)=N1 (stereo not drawn) [(Ia) R2=p-benzyloxyphenyl]		0.013 µM	85	0.107 µM	7.3	0.0044 µM	0.6 nM	0.26 mg/L (≈ 0.641 µM)					1110 nM
NC1=NC(c2cccc(Oc3ccccc3)c2)N(c2ccc(Cl)cc2)C(N)=N1 (stereo not drawn) [(Ia) R2=m-phenoxyphenyl, 1-p-chlorophenyl-2-m-phenoxyphenyl-4,6-diamino-1,2-dihydro-1,3,5-triazine]	0.32 mg/L (≈ 0.817 µM)	0.021 µM	9	0.367 µM	5.4	0.0027 µM	0.5 nM	0.28 mg/L (≈ 0.715 µM)					190 nM
COc1ccc(Oc2cccc(C3N=C(N)N=C(N)N3c3ccc(Cl)cc3)c2)cc1 (stereo not drawn) [(Ia) R2=3-(4-methoxyphenoxyl)phenyl]	1.25 mg/L (≈ 2.96 µM)	0.048 µM	17	2.88 µM	9.4	0.0066 µM	0.7 nM	5.19 mg/L (≈ 12.3 µM)					830 nM
NC1=NC(c2ccc(Oc3ccccc3)cc2)N(c2ccc(Cl)cc2)C(N)=N1 (stereo not drawn) [(Ia) R2=p-phenoxyphenyl, 1-p-chlorophenyl-2-p-phenoxyphenyl-4,6-diamino-1,2-dihydro-1,3,5-triazine]	0.2 mg/L (≈ 0.51 µM)	0.003 µM	376	0.121 µM	9.5	0.0038 µM	0.4 nM	0.07 mg/L (≈ 0.179 µM)					1130 nM
CCCCOc1ccc(C2N=C(N)N=C(N)N2c2ccc(Cl)cc2)cc1 (stereo not drawn) [(Ia) R2=p-butyloxyphenyl, 1-p-chlorophenyl-2-p-n-butyloxyphenyl-4,6-diamino-1,2-dihydro-1,3,5-triazine]	0.091 mg/L (≈ 0.245 µM)	0.026 µM	15	0.287 µM	5.0	0.005 µM	1 ± 0.1 nM	0.14 mg/L (≈ 0.376 µM)		80	400	15.3	400 nM
CCCCOc1ccc(C2N=C(N)N=C(N)N2c2ccc(OCc3ccccc3)cc2)cc1 (stereo not drawn) [1-p-benzyloxyphenyl-2-p-n-butoxyphenyl-4,6-diamino-1,2-dihydro-1,3,5-triazine]		0.049 µM	4.1	0.384 µM	8.2	0.0066 ± 0.0006 µM	0.8 ± 0.1 nM			31	253	4.1	203 nM
NC1=NC(c2cccc(OCc3ccccc3)c2)N(c2cccc(Cl)c2)C(N)=N1 (stereo not drawn) [(Ib) R2=3-benzyloxyphenyl]	0.019 mg/L (≈ 0.0468 µM)	0.012 µM	3.8	3.97 µM	1.4	0.0032 ± 0.0002 µM	2.3 ± 0.5 nM	0.45 mg/L (≈ 1.11 µM)					46 nM
CC(C)(C)c1ccc(Oc2cccc(C3N=C(N)N=C(N)N3c3ccc(Cl)cc3)c2)cc1 (stereo not drawn) [(Ia) R2=3-(4-t-butylphenoxy)phenyl]	0.26 mg/L (≈ 0.58 µM)	0.112 µM	7	4.12 µM	5.8	0.0099 ± 0.0015 µM	1.7 nM	0.75 mg/L (≈ 1.67 µM)					770 nM
NC1=NC(c2ccc(-c3ccccc3)cc2)N(c2ccc(Cl)cc2)C(N)=N1 (stereo not drawn) [(Ia) R2=4-biphenyl]	0.68 mg/L (≈ 1.81 µM)			0.621 µM	6.5	0.0085 µM	1.3 ± 0.1 nM	2.2 mg/L (≈ 5.85 µM)					
NC1=NCN(c2ccc(OCc3ccccc3)cc2)C(N)=N1 [R2=H, X=BnO, Y=H]		0.01 µM	4.4	0.69 µM	1.3	0.0286 ± 0.0022 µM	22.4 ± 1.3 nM			1.54	1.96	4.44	44 nM
